Assay results: patent US6737547B1, “Compositions containing and methods of using N-acyl-1H-aminoindenes” (Teva Pharmaceutical Industries, Ltd., priority 1998, dated 2004)
Entries after “also recorded” stand apart in the source; their conditions may differ. Like-named read-outs stand apart in the source and are kept apart here.

Assays:
mice = assay: Protection against hypobaric hypoxia in mice (survival time); type: in vivo
Method: The apparatus used consisted of two chambers A and B connected by a three-way valve. […] The air in chamber A was evacuated to a pressure of 100 mm Hg. The three way valve was turned to disconnect chamber B from room air and to connect it to chamber A. At this point, the pressure in B fell to 200 mm Hg. Survival of residing mice was determined up to a maximum exposure of 15 minutes, and is defined as the time between onset of hypoxia to cessation of respiration.

[1] = system: guinea-pig ileal preparation; assay: Decrease in contractile response of guinea-pig ileum evoked by the nicotinic agonist DMPP; set-up: Emax: dose or concentration left out as unconfirmed; conditions: for reversibility of the depression by rising concentrations of DMPP: test compound at 200 uM fixed bath concentration, FIG. 8
Method: A strip of guinea-pig ileum is mounted in an organ bath, as described in EXAMPLE 10. 1-N,N-dimethyl-4-N-phenylpiperazinium chloride (DMPP) is added at intervals of about 15 minutes in order of increasing dose, to cause bath concentrations in the range of 0.1-10 uM. A brief contraction follows each addition. The amplitude of the contractile response is used to derive a dose-response relationship for DMPP. Usually, a bath concentration of 1 uM DMPP will give 90-100% of the maximal response obtainable in the given preparation. One of two procedures follows this: A dose-response of a test compound is determined in the presence of a fixed concentration of DMPP. This is done by incubating the preparation with a given concentration of the test compound, then challenging it with DMPP at a dose to give 1 uM bath concentration. The procedure is repeated with the next higher concentration of the test compound. In the other procedure, the dose-response of DMPP is determined in the presence of a fixed bath concentration of the test compound, usually 200 uM.
When intramural nerve stimulation occurs, as in the case of electrical stimulation, the contractile effector substance is released from nerve endings by a depolarization wave that propagates along the parasympathetic nerve fiber until its junction with smooth muscle of the ileum. An alternative but not equivalent procedure is stimulation of parasympathetic ganglia by an appropriate nicotinic agonist such as 1-N,N-dimethyl-4-N-phenylpiperazinium chloride (DMPP). Stimulation of parasympathetic ganglia causes a depolarization wave in the post-ganglionic nerve fiber which terminates on the smooth muscle of the ileum, causing release of contractile effector and contraction (see, for example, E. S. Vizi, Acetylcholine release from guinea-pig ileum by parasympathetic ganglion stimulants and gastrin-like polypeptides, Br. J. Pharmacol. 47, 765-77. 1973).

[2] = system: guinea-pig ileal preparation; assay: Decrease of contractile response to intramural electric stimulation in the guinea-pig ileal preparation; conditions: Cavia porcellus
Method: A 2 cm-long section of the distal ileum freshly dissected from a CO2-asphyxiated guinea pig is cleaned from adhering tissue and mounted in an organ bath (5 mL) containing Krebs solution constantly aerated with oxygen containing 5% CO2. The initial tension is adjusted at 5 g per strip. Tension is monitored isometrically with a Grass FTC3 force transducer. Intramural electric stimulation is delivered through a platinum electrode from a Grass stimulator model s88, s44 at supramaximal voltage (V) and a frequency of 0.1/s. The preparation develops a rhythmic contractile response at maximal amplitude which is stable over time. Addition of test drugs to the organ bath causes a dose-dependent decrease in contraction amplitude which is stable over 5-8 minutes. The relative decrease in contractile response indicates the relative potency of a given agent in a series.
Blocking or decreasing neural excitability evoked by programmed electric stimulation is another indicator of a compound's potential neuroprotective activity. A convenient test system uses the guinea-pig ileal preparation mounted in an organ bath (see, for example, Eiichi Hayashi et al., European J. Pharmacol 48, 297-307, 1978).

Male ICR mice = assay: Protection against maximal electroshock-induced seizure in mice (MES); type: in vivo; conditions: for protected/total: electroshock 30 min after medication; for ED50: Mus musculus, median effective dose, maximal electroshock, mice, ip, read-out: ED50 (95% confidence limits)
Method: Male ICR mice were used. The rodent shocker apparatus consisted of a shock stimulator Type 221 (Hugo Sachs Elektronik, Germany) with a current setting for mice. Thirty minutes after medication with a given agent, given intraperitoneally as a fine slurry in methyl cellulose 0.5% in distilled water, each mouse received an electroshock of 50 mA for 0.2 seconds, applied to the eye, at a maximum of 250 V/300 mA. The ratio of mice protected against seizure in a group of four per dose was determined and used as an indicator of neuroprotective activity.
Protection of mice against seizures induced by electroshock is a widely used model to probe for potential anti-epileptic agents (see, for example, Y. I. Sohn et al., Anticonvulsant properties of diphenylthiohydantoin, Arch. Int. Pharmacodyn. 188, 284-289, 1970).

[3] = system: guinea-pig ileal preparation; assay: Potentiation of adenosine depression of contractile response, procedure I (in the presence of test compound); conditions: drug present
Method: (§1) The test system used is the intramural electrically-stimulated guinea-pig ileal preparation as described in EXAMPLE 10. Adenosine added to the organ bath in rising concentrations in the range 0.1-10 uM causes a dose-dependent decrease in contraction amplitude, with an EC50 of about 1 uM.
In procedure I, the effect of a given concentration of adenosine, usually, 0.2 or 0.4 uM was first determined and related to the full contractile response in the absence of adenosine. […] The amplitude of the contractile response was recorded. Now, adenosine was added at the same dose initially used, and the effect of adenosine in the presence of the test compound was recorded.
(§2) The calculated effect is the product of the responses to each of the two agents when applied separately. The potentiation ratio is defined as (100%found)/(100-% calculated).

[4] = system: guinea-pig ileal preparation; assay: Potentiation of adenosine depression of contractile response, procedure II (after exposure to and washout of test compound); conditions: for Mean potentiation ratio ± SEM: drug conc. (uM): 3, 100-400, 2a, 1000, 2, 1000
Method: as §1, §2
In all cases, the difference between the calculated and observed response was statistically significant. […] In procedure II, the dose response to adenosine was determined before and after exposure of the preparation to the test drug and washout of the test drug from the organ bath. In this case, significant potentiation of adenosine was observed even though the test drug had been washed out from the organ bath. In fact, the potentiation ratio, as defined earlier, was even higher than found in the presence of the test compounds (Procedure I), reaching very high values.

[5] = Mus musculus, 50 mg/kg, ip, mice, 200 mm Hg, read-out: survival ± SD (survival time as percent of vehicle control)
[6] = Mus musculus, ip, mice, 200 mm Hg, read-out: survival ± SD (survival time as percent of vehicle control)
[7] = Mus musculus, ip, read-out: survival ± SD (survival time as percent of vehicle control)
[8] = dose of 25 mg/kg, listed in decreasing order of activity
[9] = Mus musculus, 12.5 mg/kg, ip, mice, 200 mm Hg, read-out: survival ± SD (survival time as percent of vehicle control)
[10] = Mus musculus, 25 mg/kg, ip, mice, 200 mm Hg, read-out: survival ± SD (survival time as percent of vehicle control)
[11] = calculated from logit plot, contractile response to intramural electric stimulation, read-out: EC50
[12] = Cavia porcellus, calculated from logit plot, inhibiting contractile response to 1 uM DMPP, read-out: EC50
[13] = adenosine 0.4 uM, drug conc. range (uM): 3, 20-400, 5, 50-200, 6, 25-50
[14] = adenosine 0.4 uM, after exposure and washout, 5, 50-400, 6, 50-400
[15] = adenosine 0.4 uM, after exposure and washout, drug conc. range (uM): 3, 100-400, 5, 50-400, 6, 50-400
[16] = adenosine 0.2 uM, drug conc. range 40-400 uM
[17] = adenosine 0.1 uM, drug conc. range 40-400 uM

Compound `CC(=O)NC1CCc2cc(Cl)ccc21` (stereo not drawn) [Compound 13, reference compound] has a response vs control in vivo at 50 mg/kg (mice; [5]) of 148 ± 77% and a response vs control in vivo at 100 mg/kg (mice; [6]) of 267 ± 151%.
Compound `COC(=O)NC1=CCc2ccccc21` [Compound 8, N-Methoxycarbonyl-3-amino-1H-indene] has a response vs control in vivo at 12.5 mg/kg (mice; [7]) of 195 ± 90%, a response vs control in vivo at 25 mg/kg (mice; [7]) of 402 ± 348% and a response vs control in vivo at 50 mg/kg (mice; [7]) of 547 ± 327%. The “activity in the hypobaric hypoxia model (in words)” value (shortened to “activity”) (mice; [8]) was “strong activity”.
For `C[N+]1(C)CCN(c2ccccc2)CC1` [DMPP, 1-N,N-dimethyl-4-N-phenylpiperazinium chloride, reference compound], the Emax ([1]; Cavia porcellus, read-out: contractile response as % of the maximal response obtainable) was 90 to 100%.
With `Nc1ncnc2c1ncn2[C@@H]1O[C@H](CO)[C@@H](O)[C@H]1O` [Adenosine, adenosine, reference compound] the EC50 ([2]; adenosine added in rising concentrations 0.1-10 uM, electrically-stimulated ileal preparation, read-out: EC50 of decrease in contraction amplitude) was roughly 1 µM.
With `CC(=O)NC1=CCc2ccccc21` [Compound 3, N-Acetyl-3-amino-1H-indene] the “protection over 2a (control)” value (mice; 50 mg/kg, mice) was 1000%, the side effects (mice; 50 mg/kg, mice) was “minor and transient side effects such as slight sedation, hypopnea and defecation” and the response vs control in vivo at 12.5 mg/kg (mice; [9]) was 637 ± 341%. It also gave a response vs control in vivo at 25 mg/kg (mice; [10]) of 735 ± 238%, a response vs control in vivo at 50 mg/kg (mice; [5]) of 879 ± 237% and a response vs control in vivo at 100 mg/kg (mice; [6]) of 703 ± 242%. The “activity” value (mice; [8]) was “strong activity”, the protected/total (Male ICR mice; 100 mg/kg intraperitoneally) was 1/4 and the protected/total (Male ICR mice; 125 mg/kg intraperitoneally) was 2/4. The protected/total (Male ICR mice; 150 mg/kg intraperitoneally) was 4/4, the ED50 (Male ICR mice) was 116 mg/kg and the EC50 [2, 11] was 251 µM. The EC50 [1, 12] was 170 µM, the “reversibility of the depression by rising concentrations of DMPP” value [1] was “not reversible; also recorded: irreversibly blocked” and the “Mean potentiation ratio ± SEM” value [3, 13] was 1.49 ± 0.075. For the same compound, the “potentiation ratio, Max” value [3, 13] was 1.74, the “potentiation ratio, Min” value [3, 13] was 1.29 and the “Mean potentiation ratio ± SEM” value [4, 14] was 1.54 ± 0.25. For the same compound, the “potentiation ratio, Max” value [4, 15] was 1.99 and the “potentiation ratio, Min” value [4, 15] was 1.14.
In the case of `CC(=O)N[C@@H]1CCc2ccccc21` [Compound 2a, (R)-N-acetyl-1-aminoindan, reference compound], the response vs control in vivo at 25 mg/kg (mice; [10]) is reported as 142 ± 94%, the response vs control in vivo at 36 mg/kg (mice; Mus musculus, 36 mg/kg, ip, mice, 200 mm Hg, read-out: survival ± SD (survival time as percent of vehicle control)) is reported as 110 ± 57% and the response vs control in vivo at 50 mg/kg (mice; [5]) is reported as 299 ± 69%. For the same compound, the response vs control in vivo at 100 mg/kg (mice; [6]) was 375 ± 72%, the protected/total (Male ICR mice; 25 mg/kg intraperitoneally) was 0/4 and the protected/total (Male ICR mice; 50 mg/kg intraperitoneally) was 3/4. The protected/total (Male ICR mice; 100 mg/kg intraperitoneally) was 4/4, the ED50 (Male ICR mice) was 42 mg/kg and the EC50 [2, 11] was 748 µM. The EC50 [1, 12] was 279 µM, the “reversibility of the depression by rising concentrations of DMPP” value [1] was “almost to full restoration” and the “Mean potentiation ratio ± SEM” value [3, 16] was 1.31 ± 0.05. The “potentiation ratio, Max” value [3, 16] was 1.43, the “potentiation ratio, Min” value [3, 16] was 1.19 and the “Mean potentiation ratio ± SEM” value [4, 14] was 1.41. For the same compound, the “rate of restoration of the original response to adenosine after washout” value ([4]; after exposure to and washout of the potentiating agent) was “fastest”.
With `CC(=O)NC1CCc2ccccc21` (stereo not drawn) [Compound 2, N-acetyl-1-aminoindan, reference compound] the response vs control in vivo at 100 mg/kg (mice; [6]) was 200%, the EC50 [2, 11] was 1840 µM and the “Mean potentiation ratio ± SEM” value [3, 17] was 1.35 ± 0.07. The “potentiation ratio, Max” value [3, 17] was 1.49, the “potentiation ratio, Min” value [3, 17] was 1.16 and the “Mean potentiation ratio ± SEM” value [3, 16] was 1.24 ± 0.16. For the same compound, the “potentiation ratio, Max” value [3, 16] was 1.51, the “potentiation ratio, Min” value [3, 16] was 0.79 and the “Mean potentiation ratio ± SEM” value [4, 14] was 0.87.
`CC(=O)NC1=CCCc2ccccc21` [Compound 4, N-Acetyl-4-amino-1,2-dihydronaphthalene] was tested, and the response vs control in vivo at 25 mg/kg (mice; [7]) was 156 ± 24%, the “activity” value (mice; dose not given) was “inactive” and the protected/total (Male ICR mice; 75 mg/kg intraperitoneally) was 0/4. For the same compound, the protected/total (Male ICR mice; 100 mg/kg intraperitoneally) was 3/4, the ED50 (Male ICR mice) was 92.3 mg/kg and the EC50 [2, 11] was 752 µM. It also gave an EC50 ([1]; Cavia porcellus) of 193 µM.
In the case of `O=CNC1=CCc2cc(Cl)ccc21` [Compound 7, N-formyl-6-chloro-3-amino-1H-indene], the response vs control in vivo at 12.5 mg/kg (mice; [9]) is reported as 357 ± 299%, the response vs control in vivo at 25 mg/kg (mice; [10]) is reported as 467 ± 239% and the response vs control in vivo at 50 mg/kg (mice; [5]) is reported as 893 ± 433%. The “activity” value (mice; [8]) was “strong activity”.
For `CCCC(C)C1(CC)C(=O)N=C([O-])NC1=O.[Na+]` (stereo not drawn) [Nembutal, reference compound], the “survival ± SD (survival time as percent of vehicle control)” value (mice; 40 mg/kg, ip, mice, 200 mm Hg) was 253 ± 200% of vehicle control.
With `CCCC(CCC)C(=O)[O-].[Na+]` [Sodium valproate, sodium valproate, reference compound] the protected/total (Male ICR mice; 280 mg/kg) was 1/8, the protected/total (Male ICR mice; 310 mg/kg) was 2/8 and the protected/total (Male ICR mice; 340 mg/kg) was 4/8. The protected/total (Male ICR mice; 400 mg/kg) was 6/8, the protected/total (Male ICR mice; 600 mg/kg) was 8/8 and the ED50 (Male ICR mice) was 350 mg/kg.
For `CN1C(=O)CN=C(c2ccccc2)c2cc(Cl)ccc21` [Diazepam, diazepam, reference compound], the response vs control in vivo at 10 mg/kg (mice; [7]) was 316 ± 78%.
